Tests used:
Experiment in all cases: cells
HCC2157 = assay type: functional, cell-based; conditions: Homo sapiens;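 further: growth inhibition of the cancer cell line, read out as cell viability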
Description: SANGER: Inhibition of human HCC2157 cell growth in a cell viability assay.

SW780 = assay type: functional, cell-based, Homo sapiens; conditions: Homo sapiens, SW780;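 further: growth inhibition of the cells, read out with a cell viability assay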
Description: SANGER: Inhibition of human SW780 cell growth in a cell viability assay.

SAS = assay type: functional, cell-based, Homo sapiens; conditions: Homo sapiens, SAS;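 further: growth inhibition of SAS cells, read out with a cell viability assay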
Description: SANGER: Inhibition of human SAS cell growth in a cell viability assay.

NCI-N87 = assay type: functional, cell-based, Homo sapiens; conditions: Homo sapiens, NCI-N87;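 further: growth inhibition of human NCI-N87 cells, read out with a cell viability assay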
Description: SANGER: Inhibition of human NCI-N87 cell growth in a cell viability assay.

EFM-19 = assay type: functional, cell-based, Homo sapiens; conditions: Homo sapiens, EFM-19;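 further: growth inhibition of human EFM-19 cells, measured in a cell viability assay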
Description: SANGER: Inhibition of human EFM-19 cell growth in a cell viability assay.

DMS-273 = assay type: functional, cell-based, Homo sapiens; conditions: Homo sapiens, DMS-273
Description: SANGER: Inhibition of human DMS-273 cell growth in a cell viability assay.

RCM-1 = assay type: functional, cell-based, Homo sapiens; conditions: Homo sapiens, RCM-1;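 further: growth inhibition of the RCM-1 line, determined with a cell viability readout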
Description: SANGER: Inhibition of human RCM-1 cell growth in a cell viability assay.

FTC-133 = assay type: functional, cell-based, Homo sapiens; conditions: Homo sapiens, FTC-133
KINGS-1 = assay type: functional, cell-based, Homo sapiens; conditions: Homo sapiens, KINGS-1;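 further: cell viability assay measuring suppression of KINGS-1 cell growth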
Description: SANGER: Inhibition of human KINGS-1 cell growth in a cell viability assay.

HCC 2998 = assay type: functional, cell-based, Homo sapiens; conditions: Homo sapiens, HCC 2998;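 further: growth inhibition of human HCC2998 cells, measured with a cell viability read-out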
Description: SANGER: Inhibition of human HCC2998 cell growth in a cell viability assay.

KMOE-2 = assay type: functional, cell-based; conditions: Homo sapiens;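 further: growth inhibition of human KMOE-2 cells, read out with a cell viability assay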
Description: SANGER: Inhibition of human KMOE-2 cell growth in a cell viability assay.

NCI-H292 = assay type: functional, cell-based, Homo sapiens; conditions: Homo sapiens, NCI-H292;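 further: growth inhibition of NCI-H292 cells, read out with a cell viability assay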
Description: SANGER: Inhibition of human NCI-H292 cell growth in a cell viability assay.

LB771-HNC = assay type: functional, cell-based, Homo sapiens; conditions: Homo sapiens, LB771-HNC;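 further: growth inhibition of LB771-HNC human cells, read out with a cell viability assay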
Description: SANGER: Inhibition of human LB771-HNC cell growth in a cell viability assay.

BB30-HNC = assay type: functional, cell-based, Homo sapiens; conditions: Homo sapiens, BB30-HNC;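 further: growth inhibition of the cultured cell line, read out by a cell viability assay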
Description: SANGER: Inhibition of human BB30-HNC cell growth in a cell viability assay.

SK-MEL-1 = assay type: functional, cell-based; conditions: Homo sapiens;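 further: growth inhibition of human SK-MEL-1 cells, read out by a cell viability assay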
Description: SANGER: Inhibition of human SK-MEL-1 cell growth in a cell viability assay.

ACHN = assay type: functional, cell-based, Homo sapiens; conditions: Homo sapiens, ACHN;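 further: cell viability read-out used to gauge how strongly growth of human ACHN cells is suppressed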
Description: SANGER: Inhibition of human ACHN cell growth in a cell viability assay.

TE-8 = assay type: functional, cell-based, Homo sapiens; conditions: Homo sapiens, TE-8;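 further: growth inhibition of TE-8 cells, measured with a cell viability readout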
Description: SANGER: Inhibition of human TE-8 cell growth in a cell viability assay.

SW1783 = assay type: functional, cell-based; conditions: Homo sapiens;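 further: cell growth inhibition measured with a viability assay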
Description: SANGER: Inhibition of human SW1783 cell growth in a cell viability assay.

SW 954 = assay type: functional, cell-based, Homo sapiens; conditions: Homo sapiens, SW 954;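 further: growth inhibition of SW954 human cancer cells, read out as cell viability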
Description: SANGER: Inhibition of human SW954 cell growth in a cell viability assay.

MDA-MB-231 = assay type: functional, cell-based, Homo sapiens; conditions: Homo sapiens, MDA-MB-231
Description: SANGER: Inhibition of human MDA-MB-231 cell growth in a cell viability assay.

MZ7-mel = assay type: functional, cell-based, Homo sapiens; conditions: Homo sapiens, MZ7-mel;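 further: growth inhibition of human MZ7-mel cells, measured by a cell viability assay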
Description: SANGER: Inhibition of human MZ7-mel cell growth in a cell viability assay.

HAL-01 = assay type: functional, cell-based; conditions: Homo sapiens;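 further: growth inhibition of human HAL-01 cells, read out with a cell viability assay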
Description: SANGER: Inhibition of human HAL-01 cell growth in a cell viability assay.

SW1088 = assay type: functional, cell-based, Homo sapiens; conditions: Homo sapiens, SW1088;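 further: growth inhibition of human SW1088 cells, read out by a cell viability assay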
Description: SANGER: Inhibition of human SW1088 cell growth in a cell viability assay.

HT-29 = assay type: functional, cell-based, Homo sapiens; conditions: Homo sapiens, HT-29;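 further: growth inhibition of human HT-29 cells, read out by a cell viability assay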
Description: SANGER: Inhibition of human HT-29 cell growth in a cell viability assay.

T84 = assay type: functional, cell-based, Homo sapiens; conditions: Homo sapiens, T84;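 further: growth inhibition measured with a cell viability readout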
Description: SANGER: Inhibition of human T84 cell growth in a cell viability assay.

BB65-RCC = assay type: functional, cell-based, Homo sapiens; conditions: Homo sapiens, BB65-RCC;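 further: growth inhibition of the cell line, measured with a cell viability assay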
Description: SANGER: Inhibition of human BB65-RCC cell growth in a cell viability assay.

NCI-H1395 = assay type: functional, cell-based, Homo sapiens; conditions: Homo sapiens, NCI-H1395;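 further: cell viability assay read-out quantifying reduced proliferation of human NCI-H1395 cells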
Description: SANGER: Inhibition of human NCI-H1395 cell growth in a cell viability assay.

U-87 MG = assay type: functional, cell-based, U-87MG ATCC; conditions: Homo sapiens;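 further: growth inhibition of the cells measured with a viability assay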
Description: SANGER: Inhibition of human U-87-MG cell growth in a cell viability assay.

SF-539 = assay type: functional, cell-based, Homo sapiens; conditions: Homo sapiens, SF-539;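 further: Read-out is a cell viability assay, with IC50 reflecting inhibition of cell growth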
Description: SANGER: Inhibition of human SF539 cell growth in a cell viability assay.

HT-144 = assay type: functional, cell-based, Homo sapiens; conditions: Homo sapiens, HT-144
Description: SANGER: Inhibition of human HT-144 cell growth in a cell viability assay.

RPMI-7951 = assay type: functional, cell-based, Homo sapiens; conditions: Homo sapiens, RPMI-7951
Description: SANGER: Inhibition of human RPMI-7951 cell growth in a cell viability assay.

KYSE-510 = assay type: functional, cell-based, Homo sapiens; conditions: Homo sapiens, KYSE-510;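 further: cell viability readout used to measure how strongly growth of the cell line is suppressed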
Description: SANGER: Inhibition of human KYSE-510 cell growth in a cell viability assay.

RKO = assay type: functional, cell-based, Homo sapiens; conditions: Homo sapiens, RKO;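 further: growth inhibition of human RKO cells, read out with a cell viability assay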
Description: SANGER: Inhibition of human RKO cell growth in a cell viability assay.

RPMI-8226 = assay type: functional, cell-based; conditions: Homo sapiens
Description: SANGER: Inhibition of human RPMI-8226 cell growth in a cell viability assay.

DB = assay type: functional, cell-based; conditions: Homo sapiens
Description: SANGER: Inhibition of human DB cell growth in a cell viability assay.

NCI-H1155 = assay type: functional, cell-based; conditions: Homo sapiens;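 further: cell growth inhibition measured by a viability assay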
Description: SANGER: Inhibition of human NCI-H1155 cell growth in a cell viability assay.

IGR-1 = assay type: functional, cell-based, Homo sapiens; conditions: Homo sapiens, IGR-1;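 further: growth inhibition of human IGR-1 cells, read out with a cell viability assay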
Description: SANGER: Inhibition of human IGR-1 cell growth in a cell viability assay.

TE-1 = assay type: functional, cell-based, Homo sapiens; conditions: Homo sapiens, TE-1;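 further: growth inhibition of the human TE-1 cell line, read out with a cell viability assay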
Description: SANGER: Inhibition of human TE-1 cell growth in a cell viability assay.

NTERA-2-cl-D1 = assay type: functional, cell-based, Homo sapiens; conditions: Homo sapiens, NTERA-2-cl-D1;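 further: inhibition of cell growth, measured with a cell viability assay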
Description: SANGER: Inhibition of human NTERA-S-cl-D1 cell growth in a cell viability assay.

MZ1-PC = assay type: functional, cell-based, Homo sapiens; conditions: Homo sapiens, MZ1-PC;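 further: cell viability assay measuring growth inhibition of human MZ1-PC cells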
Description: SANGER: Inhibition of human MZ1-PC cell growth in a cell viability assay.

Panc1005 = assay type: functional, cell-based, Homo sapiens; conditions: Homo sapiens, Panc1005;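 further: growth inhibition of human PANC-10-05 cells, measured by a cell viability assay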
Description: SANGER: Inhibition of human PANC-10-05 cell growth in a cell viability assay.

8505C = assay type: functional, cell-based, Homo sapiens; conditions: Homo sapiens, 8505C
Description: SANGER: Inhibition of human 8505C cell growth in a cell viability assay.

CAKI-1 = assay type: functional, cell-based, Homo sapiens; conditions: Homo sapiens, CAKI-1;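 further: growth inhibition of CAKI-1 cells, measured by a cell viability assay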
Description: SANGER: Inhibition of human CAKI-1 cell growth in a cell viability assay.

TK-10 = assay type: functional, cell-based, Homo sapiens; conditions: Homo sapiens, TK-10;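 further: growth inhibition of TK-10 cells, read out in a cell viability assay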
Description: SANGER: Inhibition of human TK10 cell growth in a cell viability assay.

ATN-1 = assay type: functional, cell-based; conditions: Homo sapiens;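 further: growth inhibition of human ATN-1 cells, read out with a cell viability assay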
Description: SANGER: Inhibition of human ATN-1 cell growth in a cell viability assay.

L-363 = assay type: functional, cell-based; conditions: Homo sapiens
Description: SANGER: Inhibition of human L-363 cell growth in a cell viability assay.

SH-4 = assay type: functional, cell-based, Homo sapiens; conditions: Homo sapiens, SH-4;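 further: growth inhibition of SH-4 cells, read out with a cell viability assay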
Description: SANGER: Inhibition of human SH-4 cell growth in a cell viability assay.

KOSC-2 = assay type: functional, cell-based, Homo sapiens; conditions: Homo sapiens, KOSC-2;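 further: growth inhibition of KOSC-2 cells, read out by a cell viability assay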
Description: SANGER: Inhibition of human KOSC-2 cell growth in a cell viability assay.

SK-MEL-30 = assay type: functional, cell-based; conditions: Homo sapiens;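 further: growth inhibition of SK-MEL-30 cells, determined with a cell viability assay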
Description: SANGER: Inhibition of human SK-MEL-30 cell growth in a cell viability assay.

NCI-H1793 = assay type: functional, cell-based, Homo sapiens; conditions: Homo sapiens, NCI-H1793;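 further: cell growth inhibition, read out by a cell viability assay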
Description: SANGER: Inhibition of human NCI-H1793 cell growth in a cell viability assay.

EOL1 = assay type: functional, cell-based; conditions: Homo sapiens;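 further: growth inhibition of EoL-1 cells, read out by a cell viability assay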
Description: SANGER: Inhibition of human EoL-1-cell cell growth in a cell viability assay.

LXF-289 cell line = assay type: functional, cell-based, Homo sapiens; conditions: Homo sapiens, LXF-289
Description: SANGER: Inhibition of human LXF-289 cell growth in a cell viability assay.

For COC(=O)CNC(=O)C(=O)OC, which IC50 (HCC2157) is on record?
The IC50 was over 4000 µM.

What about the IC50 (SW780) of the same molecule?
Its IC50 is 133 µM.

What about the IC50 (SAS) of the same molecule?
Its IC50 is 237 µM.

And the IC50 (NCI-N87)?
The IC50 was 3950 µM.

And the IC50 (EFM-19)?
The IC50 was 1080 µM.

And the IC50 (DMS-273)?
Its IC50 is 16 µM.

And the IC50 (RCM-1)?
The IC50 was 2980 µM.

What about the IC50 (FTC-133) of the same molecule?
The IC50 was over 4000 µM.

And the IC50 (KINGS-1)?
Its IC50 is 585 µM.

What about the IC50 (HCC 2998) of the same molecule?
The IC50 was 3160 µM.

What about the IC50 (KMOE-2) of the same molecule?
Its IC50 is 305 µM.

What about the IC50 (NCI-H292) of the same molecule?
The IC50 was 103 µM.

And the IC50 (LB771-HNC)?
The IC50 was 412 µM.

And the IC50 (BB30-HNC)?
Its IC50 is 148 µM.

What about the IC50 (SK-MEL-1) of the same molecule?
The IC50 was 2370 µM.

And the IC50 (ACHN)?
The IC50 was 297 µM.

What about the IC50 (TE-8) of the same molecule?
The IC50 was 2640 µM.

And the IC50 (SW1783)?
Its IC50 is 156 µM.

And the IC50 (SW 954)?
Its IC50 is 85.4 µM.

What about the IC50 (MDA-MB-231) of the same molecule?
The IC50 was 368 µM.

And the IC50 (MZ7-mel)?
Its IC50 is 171 µM.

What about the IC50 (HAL-01) of the same molecule?
The IC50 was 119 µM.

And the IC50 (SW1088)?
The IC50 was 2720 µM.

What about the IC50 (HT-29) of the same molecule?
Its IC50 is 846 µM.

What about the IC50 (T84) of the same molecule?
Its IC50 is over 4000 µM.

What about the IC50 (BB65-RCC) of the same molecule?
Its IC50 is 2380 µM.

And the IC50 (NCI-H1395)?
Its IC50 is over 4000 µM.

And the IC50 (U-87 MG)?
Its IC50 is 147 µM.

And the IC50 (SF-539)?
Its IC50 is 310 µM.

And the IC50 (HT-144)?
The IC50 was 177 µM.

And the IC50 (RPMI-7951)?
Its IC50 is 322 µM.

And the IC50 (KYSE-510)?
The IC50 was 112 µM.

And the IC50 (RKO)?
Its IC50 is 2460 µM.

What about the IC50 (RPMI-8226) of the same molecule?
Its IC50 is 870 µM.

And the IC50 (DB)?
The IC50 was 52.4 µM.

And the IC50 (NCI-H1155)?
The IC50 was 1540 µM.

What about the IC50 (IGR-1) of the same molecule?
The IC50 was 1650 µM.

And the IC50 (TE-1)?
The IC50 was 1010 µM.

What about the IC50 (NTERA-2-cl-D1) of the same molecule?
Its IC50 is 57.6 µM.

And the IC50 (MZ1-PC)?
Its IC50 is 46 µM.

What about the IC50 (Panc1005) of the same molecule?
Its IC50 is 264 µM.

And the IC50 (8505C)?
Its IC50 is 678 µM.

What about the IC50 (CAKI-1) of the same molecule?
The IC50 was 289 µM.

And the IC50 (TK-10)?
The IC50 was 355 µM.

And the IC50 (ATN-1)?
The IC50 was 601 µM.

And the IC50 (L-363)?
Its IC50 is 150 µM.

And the IC50 (SH-4)?
Its IC50 is 2420 µM.

And the IC50 (KOSC-2)?
Its IC50 is over 4000 µM.

And the IC50 (SK-MEL-30)?
Its IC50 is 626 µM.

What about the IC50 (NCI-H1793) of the same molecule?
Its IC50 is 2950 µM.

What about the IC50 (EOL1) of the same molecule?
Its IC50 is 122 µM.

What about the IC50 (LXF-289 cell line) of the same molecule?
Its IC50 is 260 µM.

COc1cc([C@@H]2c3cc4c(cc3[C@@H](O[C@@H]3O[C@@H]5CO[C@@H](C)O[C@H]5[C@H](O)[C@H]3O)[C@H]3COC(=O)[C@H]23)OCO4)cc(OC)c1O [ETOPOSIDE] was tested. Which IC50 (HCC2157) did it give?
Its IC50 is over 16 µM.

And the IC50 (SW780)?
The IC50 was over 16 µM.

What about the IC50 (SAS) of the same molecule?
Its IC50 is 1.27 µM.

And the IC50 (NCI-N87)?
The IC50 was 15.8 µM.

What about the IC50 (EFM-19) of the same molecule?
The IC50 was 0.868 µM.

And the IC50 (DMS-273)?
Its IC50 is 0.573 µM.

And the IC50 (RCM-1)?
Its IC50 is over 16 µM.

And the IC50 (FTC-133)?
Its IC50 is 3.59 µM.

What about the IC50 (KINGS-1) of the same molecule?
The IC50 was over 16 µM.

And the IC50 (HCC 2998)?
The IC50 was 1.26 µM.

What about the IC50 (KMOE-2) of the same molecule?
Its IC50 is 8.04 µM.

And the IC50 (NCI-H292)?
Its IC50 is 4.71 µM.

And the IC50 (LB771-HNC)?
Its IC50 is over 16 µM.

And the IC50 (BB30-HNC)?
Its IC50 is 0.0642 µM.

What about the IC50 (SK-MEL-1) of the same molecule?
Its IC50 is over 16 µM.

What about the IC50 (ACHN) of the same molecule?
Its IC50 is 0.839 µM.

And the IC50 (TE-8)?
The IC50 was 8.75 µM.

And the IC50 (SW1783)?
The IC50 was 3.06 µM.

And the IC50 (SW 954)?
Its IC50 is 1.96 µM.

And the IC50 (MDA-MB-231)?
Its IC50 is 9.09 µM.

And the IC50 (MZ7-mel)?
Its IC50 is 4.3 µM.

What about the IC50 (HAL-01) of the same molecule?
The IC50 was 3.8 µM.

And the IC50 (SW1088)?
The IC50 was over 16 µM.

And the IC50 (HT-29)?
Its IC50 is 1.98 µM.

What about the IC50 (T84) of the same molecule?
The IC50 was over 16 µM.

What about the IC50 (BB65-RCC) of the same molecule?
The IC50 was 0.979 µM.

What about the IC50 (NCI-H1395) of the same molecule?
Its IC50 is over 16 µM.

What about the IC50 (U-87 MG) of the same molecule?
The IC50 was over 16 µM.

And the IC50 (SF-539)?
Its IC50 is 1.61 µM.

What about the IC50 (HT-144) of the same molecule?
Its IC50 is 0.0201 µM.

What about the IC50 (RPMI-7951) of the same molecule?
Its IC50 is 2.29 µM.

And the IC50 (KYSE-510)?
Its IC50 is 0.566 µM.

What about the IC50 (RKO) of the same molecule?
Its IC50 is 0.471 µM.

And the IC50 (RPMI-8226)?
Its IC50 is 14.3 µM.

And the IC50 (DB)?
Its IC50 is 6.53 µM.

And the IC50 (NCI-H1155)?
Its IC50 is 11 µM.

What about the IC50 (IGR-1) of the same molecule?
Its IC50 is 1.59 µM.

And the IC50 (TE-1)?
The IC50 was over 16 µM.

What about the IC50 (NTERA-2-cl-D1) of the same molecule?
The IC50 was 0.025 µM.

What about the IC50 (MZ1-PC) of the same molecule?
The IC50 was 0.811 µM.

And the IC50 (Panc1005)?
Its IC50 is 2.89 µM.

And the IC50 (8505C)?
The IC50 was 0.693 µM.

What about the IC50 (CAKI-1) of the same molecule?
The IC50 was 6.65 µM.

And the IC50 (TK-10)?
The IC50 was 7.49 µM.

And the IC50 (ATN-1)?
Its IC50 is 0.204 µM.

And the IC50 (L-363)?
Its IC50 is 6.59 µM.

What about the IC50 (SH-4) of the same molecule?
The IC50 was 3.13 µM.

What about the IC50 (KOSC-2) of the same molecule?
The IC50 was over 16 µM.

What about the IC50 (SK-MEL-30) of the same molecule?
The IC50 was 8.24 µM.

What about the IC50 (NCI-H1793) of the same molecule?
The IC50 was 5.31 µM.

What about the IC50 (EOL1) of the same molecule?
The IC50 was 0.302 µM.

What about the IC50 (LXF-289 cell line) of the same molecule?
Its IC50 is 2.08 µM.

— ChEMBL document CHEMBL1201861, “Genomics of Drug Sensitity in Cancer screening data, Wellcome Trust Sanger Institute”
